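96-well plates; 48 h exposure; 5 concentrations. Endpoints by linear interpolation between flanking doses. Not reached: highest tested concentration assigned. The concentration for 50% growth inhibition is given as GI50. TGI is the concentration that stops growth completely.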
Assays:
Assay in all cases: NCI-60 cell line screen, 48 h
786-0 renal = system: 786-0 renal
CCRF-CEM leukemia = system: CCRF-CEM leukemia
COLO 205 colon = system: COLO 205 colon
HL-60(TB) leukemia = system: HL-60(TB) leukemia
HOP-62 NSCLC = system: HOP-62 NSCLC
MDA-MB-435 = system: MDA-MB-435
NCI-H226 lung = system: NCI-H226 lung
NCI-H522 lung = system: NCI-H522 lung
OVCAR-3 ovarian = system: OVCAR-3 ovarian
OVCAR-5 ovarian = system: OVCAR-5 ovarian
OVCAR-8 ovarian = system: OVCAR-8 ovarian
PC-3 prostate = system: PC-3 prostate
SK-MEL-2 melanoma = system: SK-MEL-2 melanoma
SK-OV-3 ovarian = system: SK-OV-3 ovarian
SN12C renal = system: SN12C renal
SNB-19 CNS = system: SNB-19 CNS
SR leukemia = system: SR leukemia
SW-620 colon = system: SW-620 colon
UO-31 renal = system: UO-31 renal

| Compound | TGI (786-0 renal) [µM] | TGI (CCRF-CEM leukemia) [µM] | TGI (COLO 205 colon) [µM] | TGI (HL-60(TB) leukemia) [µM] | TGI (HOP-62 NSCLC) [µM] | TGI (MDA-MB-435) [µM] | TGI (NCI-H226 lung) [µM] | TGI (NCI-H522 lung) [µM] | TGI (OVCAR-3 ovarian) [µM] | TGI (OVCAR-5 ovarian) [µM] | TGI (OVCAR-8 ovarian) [µM] | TGI (PC-3 prostate) [µM] | TGI (SK-MEL-2 melanoma) [µM] | TGI (SK-OV-3 ovarian) [µM] | TGI (SN12C renal) [µM] | TGI (SNB-19 CNS) [µM] | TGI (SR leukemia) [µM] | TGI (SW-620 colon) [µM] | TGI (UO-31 renal) [µM] | GI50 (SW-620 colon) [µM] |
| --- | --- | --- | --- | --- | --- | --- | --- | --- | --- | --- | --- | --- | --- | --- | --- | --- | --- | --- | --- | --- |
| COc1ccc(Cn2c(=O)c(OC)c(C)c3cc4ccccc4cc32)cc1 | > 100 | > 100 | 40.2 | 46 | > 100 | > 100 | > 100 | 59.6 | > 100 | > 100 | > 100 | 49.2 | 52.5 | > 100 | 42.6 | > 100 | 57.5 | > 100 | > 100 | – |
| Cc1c(N2C(=O)C(Cl)C2/C=C/c2ccccc2)c(=O)n(-c2ccccc2)n1C (stereo unspecified) | 67.1 | 48.1 | 28 | 45.3 | 60.9 | 28.1 | 61.6 | 34.5 | > 100 | > 100 | 56.4 | > 100 | 40.6 | 76.6 | 47 | – | 43.9 | 82.1 | 92.4 | – |
| CC1(C)N/C(=C\[N+](=O)[O-])C(C)(C)N1O | > 10 | > 10 | > 10 | > 10 | > 10 | > 10 | > 10 | > 10 | > 10 | > 10 | > 10 | > 10 | > 10 | > 10 | > 10 | > 10 | > 10 | > 10 | – | – |
| CS(=O)(=O)C(C#N)c1nc2ccccc2nc1Cl (stereo unspecified) | > 100 | > 100 | > 100 | > 100 | > 100 | > 100 | > 100 | > 100 | > 100 | > 100 | > 100 | > 100 | > 100 | > 100 | > 100 | > 100 | > 100 | > 100 | > 100 | – |
| CN(C)CCOc1ccc([N+](=O)[O-])c2cccnc12 | > 100 | > 100 | > 100 | > 100 | > 100 | > 100 | > 100 | > 100 | > 100 | > 100 | > 100 | > 100 | > 100 | > 100 | > 100 | > 100 | > 100 | > 100 | > 100 | – |
| Cc1nc2ccc(Br)cc2c(=O)n1-c1nnc(C(C)(C)C)s1 | > 10 | > 10 | > 10 | > 10 | > 10 | > 10 | > 10 | > 10 | > 10 | > 10 | > 10 | > 10 | > 10 | > 10 | > 10 | > 10 | > 10 | > 10 | 4.45 | – |
| Nn1c(C23CC4CC(CC(C4)C2)C3)n[nH]c1=S | > 100 | > 100 | > 100 | > 100 | > 100 | > 100 | > 100 | > 100 | > 100 | > 100 | – | > 100 | > 100 | > 100 | > 100 | > 100 | > 100 | > 100 | > 100 | – |
| CCOC(=O)/C=C(\C(=O)OCC)n1cc(C)c(=O)n(Cc2cn(CCCCOC(C)=O)nn2)c1=O | 16.5 | 5.58 | 8.91 | 7.32 | 37.4 | 28.6 | 17.1 | 3.01 | 31.5 | 27.1 | 21.2 | 36.2 | 36.4 | > 70.7 | > 56.7 | 47.3 | 14.5 | 31.8 | 27.5 | 5 |
| NC(N)=NS(=O)(=O)c1ccc(NNc2c3ccccc3nc3ccccc23)cc1 | 25.5 | 25.4 | 33.2 | 43.9 | 40.1 | 33.9 | 20.5 | 17.5 | 15.7 | 48.2 | 31.1 | 25.3 | 37.1 | 40.3 | 35.6 | 37.3 | 13.7 | 33.7 | 66.7 | – |
| COc1ccc(/C=C2\N=C(N3CCCCC3)NC2=O)cc1 | > 100 | > 100 | > 100 | > 100 | > 100 | > 100 | > 100 | > 100 | > 100 | > 100 | > 100 | > 100 | > 100 | > 100 | > 100 | > 100 | > 100 | > 100 | > 100 | – |
| NC(=Nc1ccccc1Cl)c1ccccc1N | > 100 | > 100 | > 100 | > 100 | > 100 | > 100 | > 100 | > 100 | > 100 | > 100 | > 100 | > 100 | > 100 | > 100 | – | > 100 | > 100 | > 100 | > 100 | – |
| C=C(CCOC)CCC1CCCCC(CN(C)C)C1=O (stereo unspecified) | > 100 | > 100 | > 100 | > 100 | > 100 | > 100 | > 100 | > 100 | > 100 | > 100 | > 100 | > 100 | > 100 | > 100 | > 100 | > 100 | > 100 | > 100 | > 100 | – |
| COC(=O)[C@@H]1C=C[C@H](OC2OC(COC(C)=O)C(OC(C)=O)C(OC(C)=O)C2OC(C)=O)n2c(=O)n(-c3ccccc3)c(=O)n21 (stereo partly specified) | 2.83 | 4.42 | 3.38 | 4.39 | 28.1 | 11.9 | 40.4 | 1.07 | 3.24 | 12.6 | 8.03 | 7.67 | 5.05 | 29.4 | 7.95 | 25.8 | > 24.9 | 3.41 | 5.25 | – |
| COC(=O)c1csc([C@@H](OC(=O)[C@H](C)[C@H](CCCC(C)(Cl)Cl)OC(=O)c2csc([C@H](O)CO)n2)C(C)C)n1 | 28.3 | 34.8 | 32.3 | 35.1 | 33.6 | 26.8 | 39.7 | 32.9 | 30.8 | 29 | 22.4 | 26.7 | 28.9 | 29.7 | 4.41 | 26.8 | 32.2 | 32.6 | 19.9 | – |
| O=C1OC(CCCN2CCCCC2)(c2ccccc2)CC12CCCC2 (stereo unspecified) | > 100 | > 100 | > 100 | > 100 | > 100 | > 100 | > 100 | > 100 | > 100 | > 100 | > 100 | > 100 | > 100 | > 100 | > 100 | > 100 | > 100 | > 100 | > 100 | – |
| CS(=O)(=O)Nc1ccc2ccccc2c1-c1c(NS(C)(=O)=O)ccc2ccccc12 | > 25 | > 25 | > 25 | > 25 | > 25 | > 25 | > 25 | > 25 | > 25 | > 25 | > 25 | > 25 | > 25 | > 25 | > 25 | > 25 | > 25 | > 25 | > 25 | – |
| O=[N+]([O-])c1ccc(CSc2nncc3[nH]cnc23)cc1 | > 100 | > 100 | > 100 | > 100 | > 100 | > 100 | > 100 | > 100 | > 100 | > 100 | > 100 | > 100 | > 100 | > 100 | > 100 | – | > 100 | > 100 | > 100 | – |
| COC(=O)C1Cc2cc3c(cc2C1=O)CCC3 (stereo unspecified) | > 100 | > 100 | > 100 | > 100 | > 100 | > 100 | > 100 | > 100 | > 100 | > 100 | > 100 | > 100 | > 100 | > 100 | > 100 | > 100 | > 100 | > 100 | > 100 | – |
| C=CCn1c(N)c(C#N)c(C#N)c1CCC | > 100 | > 100 | > 100 | > 100 | > 100 | > 100 | > 100 | > 100 | > 100 | > 100 | > 100 | > 100 | > 100 | > 100 | > 100 | > 100 | > 100 | > 100 | > 100 | – |
| Cc1ccc(C(=O)N/N=C(\N=Nc2cccc([N+](=O)[O-])c2)c2ccc(N(CCC#N)CCC#N)cc2C)cc1 | > 100 | > 69.2 | 20.9 | > 43 | 79.7 | 54.3 | > 26.2 | > 100 | 6.71 | > 100 | > 91.6 | > 100 | > 77.3 | > 85.2 | > 100 | > 100 | > 100 | > 100 | > 100 | – |
| O=C(O)c1c2c(cc3c1CC(Cc1ccccc1)C3=O)CCC2 (stereo unspecified) | > 100 | > 100 | > 100 | 42.3 | > 100 | > 100 | > 100 | > 100 | > 100 | > 100 | > 100 | > 100 | > 100 | > 100 | > 100 | > 100 | > 100 | > 100 | 30.5 | – |
| CCOC(=O)c1sc(=S)n(-c2ccc(Cl)cc2)c1-n1cc(-c2ccccc2)c(C#N)c1N | 22.9 | > 100 | > 100 | > 100 | 14.7 | > 100 | 43.5 | 14.5 | 32.6 | > 100 | 27.1 | 27 | 64 | 36 | 69.7 | 41.6 | 46.7 | > 100 | – | – |
| COc1ccc2c(c1)/C(=C\c1c(Cl)[nH]c3cc(C)c(OC)cc13)C(=O)N2 | 13 | > 35.5 | 5.69 | 2.46 | 23 | 0.596 | > 100 | 6.78 | 1.71 | 14.1 | 8.22 | 8.27 | 18.5 | 3.07 | 10.7 | 12.8 | 2.58 | > 40.1 | 19.2 | – |
| COC(=O)C1=C(OC(=O)/C(=C/c2ccccc2)c2ccc(Cl)cc2Cl)C(C(=O)OC)[C@@]2(O)[C@@H](C(=O)OC)[C@H](C)C[C@@H]1[C@@H]2C(=O)OC (stereo partly specified) | > 100 | > 100 | > 100 | > 100 | > 100 | > 100 | > 100 | > 100 | > 100 | > 100 | > 100 | > 100 | > 100 | > 100 | > 100 | > 100 | > 100 | > 100 | > 100 | – |

From PubChem BioAssay (NCI)
